Source: patent US6632946B2, “Tetracyclic analogues of camptothecins, their preparation processes, their use as medicaments and the pharmaceutical compositions containing them” (Societe de Conseils de Recherches et d'Applications …, priority 1997, dated 2003)
Read-outs that look alike come from different tables or passages of the source.

Experiments:
[1] = target: T1, calf thymus topoisomerase I (Bos taurus, UniProt F1MN93); details: for PERCENTAGE OF RELAXED DNA: relaxed DNA with respect to total DNA, pUC 19, 37° C. 15 min
T1 sequence (F1MN93 1-767): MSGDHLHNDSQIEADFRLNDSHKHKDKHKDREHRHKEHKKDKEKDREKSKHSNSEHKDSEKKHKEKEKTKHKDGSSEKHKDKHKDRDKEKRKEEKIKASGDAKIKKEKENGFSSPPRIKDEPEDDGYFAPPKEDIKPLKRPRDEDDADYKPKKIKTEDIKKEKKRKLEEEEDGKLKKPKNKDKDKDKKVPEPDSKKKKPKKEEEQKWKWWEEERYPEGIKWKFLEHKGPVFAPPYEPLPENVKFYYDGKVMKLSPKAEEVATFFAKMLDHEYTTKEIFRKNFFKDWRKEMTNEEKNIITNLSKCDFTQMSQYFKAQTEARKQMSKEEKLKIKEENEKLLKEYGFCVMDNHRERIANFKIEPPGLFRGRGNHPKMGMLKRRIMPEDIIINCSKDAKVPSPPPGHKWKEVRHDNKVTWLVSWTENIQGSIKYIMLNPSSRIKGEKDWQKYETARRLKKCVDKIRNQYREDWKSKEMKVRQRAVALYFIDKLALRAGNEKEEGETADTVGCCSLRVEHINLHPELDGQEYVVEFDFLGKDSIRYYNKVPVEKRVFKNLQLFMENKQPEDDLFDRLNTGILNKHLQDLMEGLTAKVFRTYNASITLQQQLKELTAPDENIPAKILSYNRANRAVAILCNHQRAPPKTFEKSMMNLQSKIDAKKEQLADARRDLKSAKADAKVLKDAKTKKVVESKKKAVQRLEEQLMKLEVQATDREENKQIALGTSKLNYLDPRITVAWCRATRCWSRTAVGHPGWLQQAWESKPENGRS
Description: 1. Inhibition test of the relaxation of supercoiled DNA induced by topoisomerase I.
Supercoiled plasmidic DNA (pUC 19, Pharmacia Biotech, Orsay, France, 300 ng) is incubated at 37° C. for 15 min in the presence of calf thymus topoisomerase I (Gibco-BRL, Paisley, United Kingdom, 1 unit) in 20 μl of reaction buffer (Tris-HCl pH 7.5:50 mM, KCl: 50 mM, DTT: 0.5 mM, MgCl2: 10 mM, EDTA: 0.1 mM, bovine serum albumin: 0.030 mg/ml) and of a potentiel inhibitor (prepared in a 50 mM extemporaneous solution in dimethylsulphoxide, then diluted with distilled water in order to obtain a final concentration of 500 μM, 200 μM, 100 μM or 10 μM, not exceeding 1% of dimethylsulphoxide). The reaction is stopped by the addition of 3 μl of a denaturing solution (proteinase K: 500 μg/ml, sodium dodecylsulphate: 1%, EDTA: 20 mM) followed by incubation at 37° C. for 30 min, then 2 μl of a loading buffer (bromophenol blue: 0.3%, sodium hydrogen phosphate: 10 mM, polysucrose Ficoll®-400: 16%) are added and the sample is placed on a 1.2% agarose gel (Sea-Kem-GTG, FMC Bioproducts/Tebu, Perray-en-Yvelines, France) containing 2 μg/ml of chloroquine. The electrophoretic migration is carried out at a voltage of 1V/cm for 20 hours, with recirculation of the electrophoresis buffer (Tris-HCl: 36 mM, sodium dihydrogen phosphate: 30 mM, EDTA: 1 mM). The gel is then stained under agitation with 2 μg/ml ethidium bromide, then photographed under ultraviolet light at 312 nm (CCD camera Vilber-Lourmat, Lyon, France). Densitometric analysis (BioProfil image analyzer Vilber-Lourmat, Lyon, France) allows the percentage of relaxed DNA with respect to total DNA to be expressed, at the chosen concentration of inhibitor.

topoisomerase II = details: for PERCENTAGE OF RELAXED DNA: relaxed DNA with respect to total DNA, pUC 19, 37° C. 15 min
Description: 2. Inhibition test of the relaxation of supercoiled DNA induced by topoisomerase II.
Supercoiled plasmidic DNA (pUC 19, Pharmacia Biotech, Orsay, France, 300 ng) is incubated at 37° C. for 15 min in the presence of calf thymus […] (Gibco-BRL, Paisley, United Kingdom, 7 units) in 20 μl of reaction buffer (Tris-HCl pH 7.9: 10 mM, KCl: 50 mM, NaCl: 50 mM, MgCl2: 5 mM, ATP: 1 mM, EDTA: […], bovine serum albumin: 15 mg/ml) and of a potential inhibitor (prepared in a 50 mM extemporaneous solution in dimethylsulphoxide, then diluted with distilled water in order to obtain a final concentration of 500 μM, 200 μM, 100 μM or 10 μM, not exceeding 1% of dimethylsulphoxide). The reaction is stopped by the addition of 3 μl of a denaturing solution (proteinase K: 500 μg/ml, sodium dodecylsulphate: 1%, EDTA: 20 mM) followed by incubation at 37° C. for 30 min, then 2 μl of a loading buffer (bromophenol blue: 0.3%, sodium hydrogen phosphate: 10 mM, polysucrose Ficoll®-400: 16%) are added and the sample is placed on a 1.2% agarose gel (Sea-Kem-GTG, FMC Bioproducts/Tebu, Perray-en-Yvelines, France) containing 2 μg/ml of chloroquine. The electrophoretic migration is carried out at a voltage of 1V/cm for 20 hours, with recirculation of the electophoresis buffer (Tris-HCl: 36 mM, sodium dihydrogen phosphate: 30 mM, EDTA: 1 mM). The gel is then stained under agitation with 2 μg/ml ethidium bromide, then photographed under ultraviolet light at 312 nm (CCD camera Vilber-Lourmat, Lyon, France). Densitometric analysis (BioProfil image analyzer Vilber-Lourmat, Lyon, France) allows the percentage of relaxed DNA with respect to the total DNA to be expressed, at the chosen concentration of inhibitor.

[2] = at concentrations greater than 10 μM

## CC[C@@]1(O)C(=O)OCc2c1cc1n(c2=O)Cc2cc3ccccc3nc2-1 [Camptothecin]
[1]; inhibitor concentration 10 μM
  PERCENTAGE OF RELAXED DNA: 95.5 ± 1.4%
[1]; inhibitor concentration 100 μM
  PERCENTAGE OF RELAXED DNA: 64.2 ± 6.1%
[1]; inhibitor concentration 200 μM
  PERCENTAGE OF RELAXED DNA: 60.6 ± 12.0%
[1]; inhibitor concentration 500 μM
  PERCENTAGE OF RELAXED DNA: 55.6 ± 8.8%

## COc1cc([C@@H]2c3cc4c(cc3[C@@H](O[C@@H]3O[C@@H]5CO[C@@H](C)O[C@H]5[C@H](O)[C@H]3O)[C@H]3COC(=O)[C@H]23)OCO4)cc(OC)c1O [Etoposide, reference compound]
Topoisomerase II; inhibitor concentration 10 μM
  PERCENTAGE OF RELAXED DNA: 92.6 ± 2.5%
Topoisomerase II; inhibitor concentration 100 μM
  PERCENTAGE OF RELAXED DNA: 28.5 ± 2.2%
Topoisomerase II; inhibitor concentration 200 μM
  PERCENTAGE OF RELAXED DNA: 18.6 ± 1.4%
Topoisomerase II; inhibitor concentration 500 μM
  PERCENTAGE OF RELAXED DNA: 12.0 ± 0.8%

## CCC(O)(CC(=O)O)c1cc2n(c(=O)c1)Cc1cc3ccccc3nc1-2 (stereo not drawn) [Example 6, 3-Hydroxy-3-(4-oxo-4,6-dihydroindolizino[1,2-b]quinoline-2-yl)pentanoic Acid]
Topoisomerase II; [2]
  inhibition of topoisomerase II compared with etoposide: better inhibitor of topoisomerase II than etoposide
Topoisomerase II; inhibitor concentration 10 μM
  PERCENTAGE OF RELAXED DNA: 98.8 ± 0.4%
Topoisomerase II; inhibitor concentration 100 μM
  PERCENTAGE OF RELAXED DNA: 9.9 ± 0.7%
Topoisomerase II; inhibitor concentration 200 μM
  PERCENTAGE OF RELAXED DNA: 11.5 ± 1.9%
Topoisomerase II; inhibitor concentration 500 μM
  PERCENTAGE OF RELAXED DNA: 6.5 ± 1.0%
[1]; [2]
  inhibition of topoisomerase I compared with camptothecin: better inhibitor of topoisomerase I than camptothecin
[1]; inhibitor concentration 10 μM
  PERCENTAGE OF RELAXED DNA: 95.2 ± 2.8%
[1]; inhibitor concentration 100 μM
  PERCENTAGE OF RELAXED DNA: 28.5 ± 3.5%
[1]; inhibitor concentration 200 μM
  PERCENTAGE OF RELAXED DNA: 15.5 ± 3.6%
[1]; inhibitor concentration 500 μM
  PERCENTAGE OF RELAXED DNA: 10.3 ± 2.8%
